Measured values reported in patent US6482975B1, “Bis-poly(ethylene oxide) surfactants and their use as antistats in photographic materials” (Eastman Kodak Company, priority 1998, dated 2002).

Key:
[1] = Critical micelle concentration from surface tension data in aqueous 7% w/w gelatin solution; assay type: physicochemical; settings: aqueous solution containing 7% wt/wt deionised Type IV bone gelatin
Experimental: (§1) A number of surfactants were tested for their ease of dissolution in water. Furthermore, the critical micelle concentrations (CMCs) of the surfactants were determined in aqueous solution containing 7% weight/weight deionised Type IV bone gelatin. The CMCs were determined from surface tension data by estimating the break point in the plot of surface tension against log concentration (see M. J. Rosen, Surfactants and Interfacial Phenomena, 2nd Edition, Wiley (1989), 110).

[2] = Ease of dissolution of surfactant in water; assay type: physicochemical
Experimental: as §1

Substance	CMC in molar terms (M) moles kg^−1 [1] [M]	Solubility in Water [2]
CxF2x+1(CH2)y—(CH2CH2O) z—OH [Zonyl FSN]	0.0003	Requires relatively long stirring
Fluoroalkylthiosuccinic acid, Polyethylene glycol diester (II, R=C6F13CH2CH2,p=7)	6e-05	Dissolves easily with gentle
